Series [1] can be described thus: Rat liver microsomal stability assay. Type of series: in vitro ADME. To be noted: both sexes, pH 7.4; pooled rat liver microsomes 0.5 mg/mL, 3 μM compound, NADPH, 37° C., 45 min; read-out: Microsomal stability T1/2 Rat. How it is done: (§1) Metabolic stability of indole-oxadiazole derivatives of Formula I was measured by determination of the rate of compound disappearance when incubated in the presence of human or rat liver microsomes. Liver microsomes are prepared from the endoplasmic reticulum of hepatocytes and are the primary source of the most important enzymes (cytochrome P450) involved in drug metabolism. Study of drug stability in the presence of liver microsomes is accepted as a valuable model permitting rapid prediction of in vivo drug stability.
(§2) Human and rat liver microsomes were obtained from commercial sources. Test compounds (3 μM) were incubated with pooled liver microsomes (male and female). Samples were incubated for a 45 minute period and removed at 5 time points and test compounds were analysed by LC-MS/MS.
(§3) Microsomes (final protein concentration 0.5 mg/mL), 0.1 M phosphate buffer pH 7.4, and test compound (final concentration 3 μM; diluted from 10 mM stock solution to give a final DMSO concentration of 0.25%) were incubated at 37° C. prior to the addition of NADPH (final concentration 1 mM) to initiate the reaction. The final incubation volume was 25 μL. A control incubation was included for each compound tested, where 0.1 M phosphate buffer pH 7.4 was added instead of NADPH. The control compounds testosterone and 7-hydroxycoumarin were included in each experiment and all incubations were performed singularly for each compound.
(§4) Each compound was incubated for 0, 5, 15, 30, and 45 minutes. The control (minus NADPH) was incubated for 45 minutes only. The reactions were stopped by the addition of 50 μL methanol containing internal standard at the appropriate time points. The incubation plates were centrifuged at 2500 rpm for 20 minutes at 4° C. to precipitate the protein.
(§5) Following protein precipitation, the sample supernatants were combined in cassettes of up to 4 compounds and analysed using standard LC-MS/MS conditions.
(§6) From a plot of the natural logarithm of the peak area ratio (i.e., the ratio of compound peak area:internal standard peak area) against time, the gradient of the line was determined. Subsequently, half-life and intrinsic clearance were calculated using the equations below:
(§7) Eliminated rate constant (k)=(−gradient).
In general terms: Liver microsomes are a subcellular fraction often used to study metabolism.

Series [2] in a line: Human liver microsomal stability assay. Type of series: in vitro ADME. To be noted: both sexes, pH 7.4; pooled human liver microsomes 0.5 mg/mL, 3 μM compound, NADPH, 37° C., 45 min; read-out: Microsomal stability T1/2 Human. How it is done:
as §1, §2, §3, §4, §5, §6, §7

Another series has as its target T1, cannabinoid CB1 receptor (Homo sapiens, UniProt P21554).
T1 construct: host or cells: HEK293 CB1 β-arrestin cells
The experiment in a line: PathHunter β-Arrestin assay (allosteric inhibition of agonist Emax). It is filed as cell-based. The following applies: HEK293 CB1 β-arrestin cells; concentration of modulator giving 50% reduction in agonist Emax; 60 min pre-incubation. An excerpt:
PathHunter™ enzyme fragment complementation is the most important method to measure β-arrestin recruitment. PathHunter™ β-Arrestin assays developed by DiscoveRX are revolutionary high-throughput screening assays for monitoring GPCR activation following ligand stimulation, without an imaging instrument, fluorescent protein tag, or radioactivity.
Instead, the assays detect GPCR activation through binding of β-arrestin to the expressed GPCR of interest, and measure the interaction of the two proteins using enzyme fragment complementation (EFC). The EFC approach offers a range of benefits for screening, including signal amplification and robust performance.
The larger portion of β-gal, termed EA for enzyme acceptor, is fused to the C-terminus of β-arrestin. The smaller, complementing fragment of β-gal, the ProLink™ tag, is expressed as a fusion protein with the GPCR of interest at the C-terminus. Upon activation, the GPCR is bound by β-arrestin. The interaction of β-arrestin and the GPCR forces the interaction of ProLink and EA, thus allowing complementation of the two fragments of β-gal and the formation of a functional enzyme capable of hydrolyzing substrate and generating a […] signal.
Using the PathHunter™ CB1 kit from DiscoveRX, a cannabinoid CB1 receptor agonist is added and activates the receptor, EA, which is fused to the C-terminus of β-arrestin, and then interacts with the ProLink™ tag which is fused to the CB1 receptor. This will result in the […] signal that is recorded by a luminescence plate reader. The […] signal is directly related to the activation of the receptor, therefore a higher concentration of agonist will yield a larger […] signal. The cannabinoid agonist is added in increasing concentrations to obtain an agonist dose response curve. With pre-incubation of a potential allosteric modulator, either an enhancement of agonist activity with an allosteric enhancer or a decrease in the maximal response of the agonist with an allosteric inhibitor is expected.
All raw data are obtained as luminescence (relative light units), and are normalised and presented as a percentage of the maximal response for the cannabinoid CB1 receptor agonist CP55,940 (2-[(1R,2R,5R)-5-hydroxy-2-(3-hydroxypropyl)cyclohexyl]-5-(2-methyloctan-2-yl)phenol).
The PathHunter™ β-Arrestin assay (from DiscoveRX, Fremont, USA) was performed as follows. HEK293 CB1 β-arrestin cells were plated 48 hours before use and incubated at 37° C., 5% CO2 in a humidified incubator. Test compounds were dissolved in dimethylsulfoxide (DMSO) and diluted in optimized cell culture (OCC, as supplied by DiscoveRX) media to the required concentrations. 5 μL of test compound or vehicle solution was added to each well and incubated for 60 minutes at 37° C., 5% CO2 in a humidified incubator. 5 μL of increasing concentrations of anandamide was added to each well followed by a 90-minute incubation at 37° C., 5% CO2 in a humidified incubator. 55 μL of detection reagent (as supplied by DiscoveRX) was then added, followed by a further 90 minute incubation at room temperature in the dark. Chemiluminescence, reported in relative light units (RLU—a dimensionless value, standardised as a % of maximum stimulation with anandamide), was measured on a standard luminescence plate reader.
Data were plotted as % of maximal stimulation (Emax) caused by agonist versus the logarithm of concentration of agonist, in the presence or absence of a fixed concentration of test compound (modulator) or vehicle. For example, stimulation in the presence of agonist alone will give a value for stimulation expressed in RLU, which can be expressed as a range from 0% (at lowest agonist concentration, e.g., 1 nM) to 100% (at the highest agonist concentration, e.g., 10 μM). […]

Series [3] has as its target T2, CB1 receptor (Mus musculus, UniProt P47746). Details: from the CB1 receptor in mouse brain membranes; from tissue; host or cells: mouse brain membranes. To be noted: mouse brain membranes; cited from earlier work.
Series [4] has as its target T2, CB1 receptor. To be noted: equilibrium binding assay, cited from earlier work; for effect on binding of CP55940: agonist CP55940.

Consider 10 molecules from patent publication US20220257569A1, “INDOLE-OXADIAZOLE COMPOUNDS AND THEIR THERAPEUTIC USE” (THE GOVERNING COUNCIL OF THE UNIVERSITY OF TORONTO, priority 2018, published 2022).

The term melting point denotes the temperature of the solid-liquid transition. In general, pIC50 refers to the IC50 on a negative log10 scale, so that one unit is a factor of ten.

Molecules are shown by their SMILES. pIC50: −log10 of the molar value.

T2 sequence (P47746 whole entry): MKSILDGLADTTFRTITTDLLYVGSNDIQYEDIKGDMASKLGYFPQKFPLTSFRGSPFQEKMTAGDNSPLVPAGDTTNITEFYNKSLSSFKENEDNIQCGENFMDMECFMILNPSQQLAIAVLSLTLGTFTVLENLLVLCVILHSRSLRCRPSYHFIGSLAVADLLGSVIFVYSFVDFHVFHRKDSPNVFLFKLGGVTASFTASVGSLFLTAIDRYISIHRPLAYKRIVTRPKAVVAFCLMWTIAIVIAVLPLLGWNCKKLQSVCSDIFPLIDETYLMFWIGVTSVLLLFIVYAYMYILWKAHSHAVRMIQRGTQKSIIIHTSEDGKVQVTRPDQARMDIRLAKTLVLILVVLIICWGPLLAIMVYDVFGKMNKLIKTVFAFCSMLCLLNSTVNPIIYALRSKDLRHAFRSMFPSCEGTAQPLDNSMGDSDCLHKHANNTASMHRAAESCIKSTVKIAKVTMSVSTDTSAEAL
T1 sequence (P21554 whole entry): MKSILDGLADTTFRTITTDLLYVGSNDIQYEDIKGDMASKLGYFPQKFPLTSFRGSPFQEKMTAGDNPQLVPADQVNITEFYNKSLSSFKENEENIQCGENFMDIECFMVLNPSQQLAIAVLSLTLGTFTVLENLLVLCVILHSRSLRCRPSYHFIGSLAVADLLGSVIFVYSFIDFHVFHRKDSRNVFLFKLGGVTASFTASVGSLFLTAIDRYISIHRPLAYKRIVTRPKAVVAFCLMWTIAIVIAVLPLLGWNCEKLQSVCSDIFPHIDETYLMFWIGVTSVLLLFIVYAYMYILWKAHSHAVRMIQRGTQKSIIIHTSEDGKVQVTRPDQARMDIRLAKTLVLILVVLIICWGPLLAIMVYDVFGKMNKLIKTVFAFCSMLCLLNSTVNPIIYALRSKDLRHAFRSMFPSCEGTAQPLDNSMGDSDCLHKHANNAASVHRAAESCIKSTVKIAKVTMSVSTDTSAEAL

With `CCc1c(-c2nnc(SCc3ccccc3)o2)[nH]c2ccc(Cl)cc12` [ABM328, 2-(Benzylthio)-5-(5-chloro-3-ethyl-1H-indol-2-yl)-1,3,4-oxadiazole], the melting point was in the range of 180 to 182 °C. The half-life at 3 μM in series [1] was 40 min. In series [2], the half-life at 3 μM came to 46 min. For the same molecule, the pIC50 at cannabinoid CB1 receptor is 7.24.
Turning to `Cc1c(-c2nnc(Nc3ccc(F)cc3)o2)[nH]c2ccc(Cl)cc12` [ABM337, 5-(5-Chloro-3-methyl-1H-indol-2-yl)-N-(4-fluorophenyl)-1,3,4-oxadiazol-2-amine], the melting point fell in the range of 256 to 258 °C. Further, on cannabinoid CB1 receptor, the pIC50 is 9.00.
Take `CCc1c(-c2nnc(Nc3ccc(F)cc3)o2)[nH]c2ccc(Br)cc12` [ABM338, 5-(5-Bromo-3-ethyl-1H-indol-2-yl)-N-(4-fluorophenyl)-1,3,4-oxadiazol-2-amine]: the melting point is 243 to 245 °C. Moreover, the half-life at 3 μM in series [1] turned out to be 292 min. In series [2], the half-life at 3 μM worked out at 174 min. For the same molecule, at cannabinoid CB1 receptor, the pIC50 was 9.00.
The molecule `Cc1c(-c2nnc(SCc3ccc(F)cc3)o2)[nH]c2ccc(Cl)cc12` [ABM339, 2-(5-Chloro-3-methyl-1H-indol-2-yl)-5-((4-fluorobenzyl)thio)-1,3,4-oxadiazole] had a melting point of 210 to 212 °C. The pIC50 on cannabinoid CB1 receptor was 6.57.
Take `CCc1c(-c2nnc(SCc3ccc(F)cc3)o2)[nH]c2ccc(Br)cc12` [ABM340, 2-(5-Bromo-3-ethyl-1H-indol-2-yl)-5-((4-fluorobenzyl)thio)-1,3,4-oxadiazole]: the melting point fell in the range of 185 to 187 °C. Further, the half-life at 3 μM in series [1] turned out to be 23 min. In addition, the half-life at 3 μM in series [2] turned out to be 40 min. Besides, the pIC50 at cannabinoid CB1 receptor is 7.72.
Regarding `CCc1c(C(=O)NCCc2ccc(N(C)C)cc2)[nH]c2ccc(F)cc12` [ORG27759], on CB1 receptor [3], the “effect on dissociation of radiolabelled CB1 receptor agonist CP55940” value (“effect on dissociation” below) is “slowing of the dissociation”. Further, on CB1 receptor [4], the “effect on binding of CP55940” value is “increase” and the “effect on binding of radiolabelled inverse agonist SR141716A” value is on record as “decrease”.
In the case of `CCc1c(C(=O)NC2CCN(Cc3ccccc3)C2)[nH]c2ccc(Cl)cc12` (stereo not shown) [ORG29647], the “effect on dissociation” value at CB1 receptor [3] is given as “slowing of the dissociation”. Also, on CB1 receptor [4], the “effect on binding of CP55940” value is recorded as “increase” and the “effect on binding of radiolabelled inverse agonist SR141716A” value was “decrease”.
On to `CCc1c(C(=O)NCCc2ccc(N3CCCCC3)cc2)[nH]c2ccc(Cl)cc12` [Reference compound 1 (Org27569)], for which the “effect on dissociation” value at CB1 receptor [3] is “slowing of the dissociation”. Besides, on CB1 receptor [4], the “effect on binding of CP55940” value was “increase”. For the same molecule, the “effect on binding of radiolabelled inverse agonist SR141716A” value on CB1 receptor [4] is listed as “decrease”. In addition, the half-life at 3 μM in series [1] was determined as 28 min; in series [2], 32 min.
With `O=S(=O)(NCc1ccc(-c2ccc(F)cc2F)cn1)c1cc2cc(Cl)ccc2[nH]1` [Reference compound 2 (ABD1075), reference compound], the half-life at 3 μM in series [1] was 32 min; in series [2] it was 56 min.
With `O=S(=O)(NCc1ccc(-c2ccc(F)nc2F)cc1)c1cc2cc(Cl)ccc2[nH]1` [Reference compound 3 (ABD1085), reference compound], the half-life at 3 μM came out at 48 min in series [1] and 39 min in series [2].
